The results in this text go back to ChEMBL document CHEMBL1136496, “Synthesis and evaluation of optically pure dioxolanes as inhibitors of hepatitis C virus RNA replication” (Bioorg Med Chem Lett, 2003).

The experiment has as its system Nucleic Acid. Description: Concentration required to inhibit HCV RNA replication was determined. Type of experiment: functional, Hepacivirus hominis.

Each structure is given as a SMILES string.

Consider `C[C@H]1O[C@@H](CO)O[C@H]1n1ccc2c(N)ncnc21`, for which the EC50 (as a rule, the concentration giving half of the maximal effect) is greater than 50 µM.
`Nc1ncnc2c1ccn2[C@H]1CO[C@@H](CO)O1` registered an EC50 greater than 50 µM.
For `C[C@H]1O[C@@H](CO)O[C@@H]1n1ccc2c(N)ncnc21`, the concentration giving a half-maximal response (EC50) is greater than 50 µM.
In the case of `C[C@H]1O[C@@H](CO)O[C@H]1n1ccc2c(O)nc(N)nc21` it was greater than 50 µM; in that of `Nc1nc(O)c2ccn([C@H]3CO[C@@H](CO)O3)c2n1`, greater than 50 µM; in that of `Nc1ncnc2c1ccn2[C@@H]1CO[C@@H](CO)O1`, greater than 50 µM.
